Test results as given in publication PMC10247784, “Physiological activation of human and mouse bitter taste receptors by bile acids” (Communications Biology, 2023).

Target: T1, mouse Tas2r108 (Mus musculus, UniProt Q9JKT3)
T1 construct: expressed in transfected cells; host or cells: HEK293T-Gα16gust44
T1 sequence (Q9JKT3 1-297): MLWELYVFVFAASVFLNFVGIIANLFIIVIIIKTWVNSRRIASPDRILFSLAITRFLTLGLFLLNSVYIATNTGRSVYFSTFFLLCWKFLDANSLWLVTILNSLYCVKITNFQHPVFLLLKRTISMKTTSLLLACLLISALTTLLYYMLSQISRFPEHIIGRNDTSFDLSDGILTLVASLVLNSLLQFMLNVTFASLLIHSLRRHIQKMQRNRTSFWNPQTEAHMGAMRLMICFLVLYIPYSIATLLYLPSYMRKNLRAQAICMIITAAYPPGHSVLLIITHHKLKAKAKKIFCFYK
Experiment: Calcium imaging assay (FLIPR), HEK293T-Gα16gust44 cells transfected with mouse Tas2r108
Assay type: cell-based
Method in brief: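 Fluo-4 calcium responses; ΔF/F corrected for mock transfection and buffer control; triplicate independent dose-response runs; p < 0.01 threshold.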

With `C[C@H](CCC(=O)NCCS(=O)(=O)O)[C@H]1CC[C@H]2[C@@H]3CC[C@@H]4C[C@H](O)CC[C@]4(C)[C@H]3CC[C@]12C` [Taurolithocholic Acid, taurolithocholic acid] the RLU (Time 0 s) was 0 RLU, the RLU (Time 2 s) was 0.6757 RLU and the RLU (Time 4 s) was -5.736 RLU. For the same compound, the RLU (Time 6 s) was 6.046 RLU, the RLU (Time 8 s) was 39.2838 RLU and the RLU (Time 12 s) was 8.803 RLU. The RLU (Time 14 s) was 5.215 RLU, the RLU (Time 16 s) was -9.6707 RLU and the RLU (Time 18 s) was -10.699 RLU. For the same compound, the RLU (Time 18.781 s) was 51.1832 RLU, the RLU (Time 20.781 s) was 31.0896 RLU and the RLU (Time 22.781 s) was 17.366 RLU. For the same compound, the RLU (Time 24.781 s) was 13.0906 RLU, the RLU (Time 26.781 s) was 51.6272 RLU and the RLU (Time 28.781 s) was 63.3328 RLU. It also gave an RLU (Time 30.781 s) of 109.429 RLU, an RLU (Time 32.781 s) of 151.07 RLU and an RLU (Time 34.781 s) of 184.905 RLU. For the same compound, the RLU (Time 36.781 s) was 210.816 RLU, the RLU (Time 38.781 s) was 242.967 RLU and the RLU (Time 40.781 s) was 265.916 RLU. The RLU (Time 42.781 s) was 261.677 RLU, the RLU (Time 44.781 s) was 303.058 RLU and the RLU (Time 46.781 s) was 324.099 RLU. The RLU (Time 48.781 s) was 311.969 RLU, the RLU (Time 50.781 s) was 342.074 RLU and the RLU (Time 52.781 s) was 343.185 RLU. The RLU (Time 54.781 s) was 378.711 RLU, the RLU (Time 56.781 s) was 389.7 RLU and the RLU (Time 58.781 s) was 401.227 RLU. For the same compound, the RLU (Time 60.781 s) was 410.325 RLU, the RLU (Time 62.781 s) was 416.305 RLU and the RLU (Time 64.781 s) was 417.574 RLU. The RLU (Time 66.781 s) was 434.462 RLU, the RLU (Time 68.781 s) was 456.387 RLU and the RLU (Time 70.781 s) was 443.293 RLU. For the same compound, the RLU (Time 72.781 s) was 455.898 RLU, the RLU (Time 74.781 s) was 461.633 RLU and the RLU (Time 76.781 s) was 455.071 RLU. It also gave an RLU (Time 78.781 s) of 466.188 RLU, an RLU (Time 80.781 s) of 477.183 RLU and an RLU (Time 82.781 s) of 506.736 RLU. It also gave an RLU (Time 84.781 s) of 503.228 RLU, an RLU (Time 86.781 s) of 489.189 RLU and an RLU (Time 88.781 s) of 473.872 RLU. It also gave an RLU (Time 90.781 s) of 497.168 RLU, an RLU (Time 92.781 s) of 472.229 RLU and an RLU (Time 94.781 s) of 481.838 RLU. For the same compound, the RLU (Time 96.781 s) was 467.082 RLU, the RLU (Time 98.781 s) was 510.678 RLU and the RLU (Time 100.781 s) was 498.898 RLU. For the same compound, the RLU (Time 102.781 s) was 493.381 RLU, the RLU (Time 104.781 s) was 508.478 RLU and the RLU (Time 106.781 s) was 488.526 RLU. It also gave an RLU (Time 108.781 s) of 487.641 RLU, an RLU (Time 110.781 s) of 528.304 RLU and an RLU (Time 112.781 s) of 500.584 RLU. The RLU (Time 114.781 s) was 484.964 RLU, the RLU (Time 116.781 s) was 486.198 RLU and the RLU (Time 118.781 s) was 494.318 RLU. The RLU (Time 120.781 s) was 504.713 RLU, the RLU (Time 122.781 s) was 501.616 RLU and the RLU (Time 124.781 s) was 482.612 RLU. The RLU (Time 126.781 s) was 503.591 RLU, the RLU (Time 128.781 s) was 486.957 RLU and the RLU (Time 130.781 s) was 500.459 RLU. The RLU (Time 132.781 s) was 472.597 RLU, the RLU (Time 134.781 s) was 498.526 RLU and the RLU (Time 136.781 s) was 501.497 RLU. The RLU (Time 137.547 s) was 471.412 RLU, the RLU (Time 143.547 s) was 482.177 RLU and the RLU (Time 149.547 s) was 466.386 RLU. It also gave an RLU (Time 155.547 s) of 451.788 RLU, an RLU (Time 161.547 s) of 449.152 RLU and an RLU (Time 167.547 s) of 425.382 RLU. The RLU (Time 173.547 s) was 442.283 RLU, the RLU (Time 179.547 s) was 425.607 RLU and the RLU (Time 185.547 s) was 410.079 RLU. It also gave an RLU (Time 191.547 s) of 397.165 RLU, an RLU (Time 197.547 s) of 392.705 RLU and an RLU (Time 203.547 s) of 382.875 RLU. The RLU (Time 209.547 s) was 387.748 RLU, the RLU (Time 215.547 s) was 381.118 RLU and the RLU (Time 221.547 s) was 374.673 RLU. For the same compound, the RLU (Time 227.547 s) was 340.738 RLU, the RLU (Time 233.547 s) was 357.908 RLU and the RLU (Time 239.547 s) was 329.058 RLU. For the same compound, the RLU (Time 245.547 s) was 312.353 RLU, the RLU (Time 293.547 s) was 280.532 RLU and the RLU (Time 299.547 s) was 302.8 RLU. The “Activation threshold concentration Tas2r108” value (p < 0.01 vs empty vector) was 1 µM, the RLU (time 305.547 s) was 271.906 RLU and the RLU (time 311.547 s) was 293.129 RLU. It also gave an RLU (time 317.547 s) of 296.196 RLU, an RLU (time 323.547 s) of 325.759 RLU and an RLU (time 329.547 s) of 278.402 RLU. For the same compound, the RLU (time 335.547 s) was 309.885 RLU, the RLU (time 341.547 s) was 315.03 RLU and the RLU (time 347.547 s) was 300.184 RLU. For the same compound, the RLU (time 353.547 s) was 294.817 RLU and the RLU (time 359.547 s) was 274.663 RLU.

With `C[C@H](CCC(=O)O)[C@H]1CC[C@H]2[C@@H]3[C@@H](O)C[C@@H]4C[C@H](O)CC[C@]4(C)[C@H]3CC[C@]12C` [Ursodeoxycholic Acid, ursodeoxycholic acid] the “Receptor response Tas2r108” value (screening) was “does not respond”.
